{
  "source": "patent US11576926B2",
  "about": "“Composition for use in the prevention and/or treatment of epistaxis” (priority 2018, dated 2023)",
  "origin": "cited, not measured here",
  "key": {"[1]": {"test_system": "corneal wounds in rat models with type 1 diabetes", "conditions": "solution containing 0.3% HA"}, "[2]": {"test_system": "nasal mucosa after surgery in the nasal cavity"}, "[3]": {"test_system": "Escherichia coli", "conditions": "silver ions"}, "[4]": {"test_system": "Staphylococcus aureus", "conditions": "silver ions"}, "[5]": {"test_system": "non-allergic and idiopathic rhinitis"}, "[6]": {"test_system": "rhinitis sicca syndrome", "conditions": "nasal spray; 0.5% ectoin, or 0.5% ectoin and 1.0% dexpanthenol"}, "[7]": {"test_system": "seasonal allergic rhinitis", "conditions": "800 mg/day in addition to the classic anti-allergy treatment; 112 patients"}, "[8]": {"test_system": "TPA (12-O-tetradecanoylphorbol-13-acetate) induced inflammatory response", "conditions": "topical, 30 minutes before TPA"}, "[9]": {"test_system": "epithelial tissue in mouse models", "conditions": "dexpanthenol cream; after 20 days; vs control group"}, "[10]": {"test_system": "epidermal wounds"}, "[11]": {"test_system": "ultraviolet-induced erythema", "conditions": "in vivo"}, "[12]": {"test_system": "fibroblast", "conditions": "both in vitro and in vivo"}, "[13]": {"test_system": "dry rhinitis", "conditions": "20 ml spray with 5% dexpanthenol; vs placebo"}, "[14]": {"conditions": "patients who received the therapy, 90 patients"}},
  "data": [
    {"molecule": "Hyaluronic acid", "values": [
      {"measurement": "re-epithelialization of corneal wounds", "setting": "[1]", "value": "statistically significant in enhancing re-epithelialization"},
      {"measurement": "formation of bloody scabs", "setting": "[2]; after the first week of treatment", "value": "prevented excessive formation of bloody scabs"},
      {"measurement": "tolerability", "setting": "[2]; all trial participants", "value": "well tolerated"},
      {"measurement": "recovery (healing of the nasal mucosa)", "setting": "[2]; cream with 2 mg HA per g, 6-week treatment, vs ointments based on plant extracts, 56 patients", "value": "recover faster and more effectively than the ointment group"},
      {"measurement": "adverse effects", "setting": "[2]; during the trial", "value": "No adverse effects were reported"}
    ]},
    {"molecule": "[Ag]", "note": "[silver, Silver]", "values": [
      {"measurement": "antibacterial effect (structural changes, permeability, ion transport)", "setting": "[3]", "value": "eventually leading to death"},
      {"measurement": "antibacterial effect (structural changes, permeability, ion transport)", "setting": "[4]", "value": "eventually leading to death"},
      {"measurement": "improvement in the condition of the nasal epithelium, share of patients", "setting": "[5]; human, in vivo", "value": "over 70%"},
      {"measurement": "treatment effect compared to placebo", "setting": "[5]; human, in vivo", "value": "statistically significant compared to placebo"},
      {"measurement": "improvement in the nasal decongestion, share of cases", "setting": "[5]; [14]", "value": 80, "unit": "%"},
      {"measurement": "improvement in the rhinorrhea, share of cases", "setting": "[5]; [14]", "value": 93, "unit": "%"}
    ]},
    {"molecule": "CC1=NCC[C@@H](C(=O)O)N1", "note": "[ectoin]", "values": [
      {"measurement": "nasal obstruction, rhinorrhea and crusting", "setting": "[6]", "value": "decreased significantly"},
      {"measurement": "recurrent nose bleeding, pharyngitis, exudate viscosity during inflammatory phenomena and cacosmia", "setting": "[6]", "value": "this did not occur"}
    ]},
    {"molecule": "Vitamin E", "values": [
      {"measurement": "nasal symptoms associated with allergic rhinitis", "setting": "[7]", "value": "reduction of the nasal symptoms"},
      {"measurement": "activity of myeloperoxidase (MPO)", "setting": "[8]", "value": "inhibits"},
      {"measurement": "activity of xanthine oxidase (XO)", "setting": "[8]", "value": "inhibits"},
      {"measurement": "lipid peroxidation (LPO)", "setting": "[8]", "value": "inhibits"},
      {"measurement": "release of hydrogen peroxide", "setting": "[8]", "value": "inhibits"}
    ]},
    {"molecule": "CC(C)(CO)[C@@H](O)C(=O)NCCCO", "note": "[dexpanthenol, Dexpanthenol]", "values": [
      {"measurement": "regeneration rate of epithelial tissue", "setting": "[9]", "value": "statistically higher than the control group"},
      {"measurement": "epidermal regeneration (transepidermal water loss monitoring)", "setting": "[10]; compared to placebo", "value": "significant acceleration of epidermal regeneration"},
      {"measurement": "erythema of epidermal wounds", "setting": "[10]; dexpanthenol emulsion", "value": "reduction in erythema"},
      {"measurement": "re-epithelialization in wound healing", "setting": "[10]; monitored by transepidermal water loss", "value": "Accelerated re-epithelialization"},
      {"measurement": "effect on experimental ultraviolet-induced erythema", "setting": "[11]", "value": "anti-inflammatory effect"},
      {"measurement": "fibroblast proliferation", "setting": "[12]", "value": "activate fibroblast proliferation"},
      {"measurement": "symptoms of rhinitis (scabs, nasal respiratory capacity)", "setting": "[13]", "value": "improving the symptoms of rhinitis"}
    ]}
  ]
}
